Data reported in ChEMBL document CHEMBL4376892, “Identification of Parthenolide Dimers as Activators of Pyruvate Kinase M2 in Xenografts of Glioblastoma Multiforme in Vivo” (J Med Chem, 2020).
Active and inactive are the calls of the source. No cut-off for these calls is given here.

Columns and labels:
SF-126 = assay: Antiproliferative activity against human SF126 cells assessed as reduction in cell viability after 72 hrs by MTT assay; assay type: functional, cell-based; conditions: SF-126, 72 h
U-87 MG [1] = assay: Induction of apoptosis in human U87 cells transfected with lentivirus expressing shPKM2 assessed as necrotic cells after 48 hrs by Annexin-V-FITC/PI-staining based flow cytometric analysis (reference value: 0.580%); assay type: functional, U-87MG ATCC
U-118-MG [2] = assay: Antiproliferative activity against human U118MG cells transfected with lentivirus expressing shNC assessed as reduction in cell viability after 24 hrs by MTT assay; assay type: functional, cell-based
U-87 MG [3] = assay: Inhibition of colony formation in human U87 cells after 7 days; assay type: functional, cell-based; conditions: U-87MG ATCC
Pyruvate kinase PKM [4] = molecular target: T1, Pyruvate kinase PKM (Homo sapiens, UniProt P14618); assay: Activation of PKM2 in human U87 cells assessed as inhibition of STAT3 protein expression at 5 uM after 48 hrs by Western blot analysis; assay type: cell-based; conditions: U-87MG ATCC
Target sequence in this assay (P14618 2-531 limits assumed): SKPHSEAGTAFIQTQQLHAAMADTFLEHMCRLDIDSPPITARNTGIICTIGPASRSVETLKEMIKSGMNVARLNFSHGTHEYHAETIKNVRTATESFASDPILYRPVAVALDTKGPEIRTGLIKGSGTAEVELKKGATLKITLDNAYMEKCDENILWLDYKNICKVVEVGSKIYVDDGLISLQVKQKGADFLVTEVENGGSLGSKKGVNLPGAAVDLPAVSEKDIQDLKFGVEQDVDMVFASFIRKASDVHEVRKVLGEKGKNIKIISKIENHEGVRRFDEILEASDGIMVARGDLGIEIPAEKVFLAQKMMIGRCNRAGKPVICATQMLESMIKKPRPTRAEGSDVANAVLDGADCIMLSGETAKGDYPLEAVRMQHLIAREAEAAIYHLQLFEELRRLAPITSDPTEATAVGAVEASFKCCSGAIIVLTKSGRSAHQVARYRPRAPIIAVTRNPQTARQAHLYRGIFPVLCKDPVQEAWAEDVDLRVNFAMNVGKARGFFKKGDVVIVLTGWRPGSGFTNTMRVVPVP

U-87 MG [5] = assay: Antimetastatic activity against human U87 cells assessed as reduction in cell invasion at 2 uM after 24 hrs by crystal violet staining based transwell assay; assay type: functional; conditions: U-87MG ATCC
U-118-MG [6] = assay: Antiinvasive activity against human U118MG cells transfected with lentivirus expressing shPKM2 at 2 uM incubated for 48 hrs by crystal violet staining based transwell assay; assay type: functional, cell-based
C6 = assay: Antiproliferative activity against rat C6 cells assessed as reduction in cell viability after 72 hrs by MTT assay; assay type: functional, cell-based; conditions: C6, 72 h
Pyruvate kinase PKM [7] = molecular target: T1, Pyruvate kinase PKM; assay: Activation of PKM2 in human U87 cells assessed as reduction in bcl2 expression at 1 to 2 uM after 48 hrs by Western blot analysis; assay type: cell-based; conditions: U-87MG ATCC
Target sequence in this assay (P14618 2-531 limits assumed): as above

Pyruvate kinase PKM [8] = molecular target: T1, Pyruvate kinase PKM; assay: Activation of recombinant human N-terminal 6His-tagged PKM2 expressed in Escherichia coli BL21 cells at 0.2 to 0.5 uM after 50 mins by fluorescence based analysis
Target sequence in this assay (P14618 2-531 limits assumed): as above

U-87 MG [9] = assay: Induction of apoptosis in human U87 cells transfected with lentivirus expressing shPKM2 assessed as viable cells after 48 hrs by Annexin-V-FITC/PI-staining based flow cytometric analysis (reference value: 97.3%); assay type: functional, U-87MG ATCC
U-118-MG [10] = assay: Induction of apoptosis in human U118MG cells after 48 hrs by Annexin-V-FITC/PI-staining based flow cytometric analysis; assay type: functional, cell-based
U-118-MG [11] = assay: Induction of apoptosis in human U118MG cells assessed as late apoptotic cells after 48 hrs by Annexin-V-FITC/PI-staining based flow cytometric analysis (reference value: 0.616%); assay type: functional
U-87 MG [12] = assay: Antimigratory activity against human U87 cells transfected with lentivirus expressing shPKM2 at 2 uM incubated for 48 hrs by crystal violet staining based transwell assay; assay type: functional, cell-based; conditions: U-87MG ATCC
U-87 MG [13] = assay: Induction of apoptosis in human U87 cells assessed as viable cells after 48 hrs by Annexin-V-FITC/PI-staining based flow cytometric analysis (reference value: 93.8%); assay type: functional, U-87MG ATCC
U-118-MG [14] = assay: Effect on total PKM2 protein expression in human U118MG cells at 0.5 to 2 uM after 48 hrs by Western blot analysis; assay type: functional, cell-based
Pyruvate kinase PKM [15] = molecular target: T1, Pyruvate kinase PKM; assay: Activation of PKM2 in human U87 cells assessed as increase in E-cadherin expression at 1 to 2 uM after 24 hrs by Western blot analysis; assay type: cell-based; conditions: U-87MG ATCC
Target sequence in this assay (P14618 2-531 limits assumed): as above

U-87 MG [16] = assay: Antimetastatic activity against human U87 cells assessed as reduction in cell migration at 2 uM after 24 hrs by crystal violet staining based transwell assay; assay type: functional; conditions: U-87MG ATCC
Pyruvate kinase PKM [17] = molecular target: T1, Pyruvate kinase PKM; assay: Activation of PKM2 in human U118MG cells assessed as reduction in bcl-xl expression at 1 to 2 uM after 48 hrs by Western blot analysis; assay type: cell-based
Target sequence in this assay (P14618 2-531 limits assumed): as above

U-87 MG [18] = assay: Induction of apoptosis in human U87 cells assessed as early apoptotic cells after 48 hrs by Annexin-V-FITC/PI-staining based flow cytometric analysis (reference value: 4.91%); assay type: functional, U-87MG ATCC
Pyruvate kinase PKM [19] = molecular target: T1, Pyruvate kinase PKM; assay: Activation of PKM2 in human U118MG cells assessed as inhibition of STAT3 phosphorylation at 1 to 2 uM after 24 hrs by Western blot analysis; assay type: cell-based
Target sequence in this assay (P14618 2-531 limits assumed): as above

Pyruvate kinase PKM [20] = molecular target: T1, Pyruvate kinase PKM; assay: Inhibition of PKM2 dimer nuclear translocation in human U118MG cells assessed as reduction in PKM2 accumulation in nucleus at 0.5 to 1 uM after 48 hrs by Western blot analysis; assay type: cell-based
U-87 MG [21] = assay: Antiproliferative activity against human U87 cells transfected with lentivirus expressing shPKM2 assessed as reduction in cell viability after 24 hrs by MTT assay; assay type: functional, cell-based, U-87MG ATCC
U-118-MG [22] = assay: Induction of apoptosis in human U118MG cells transfected with lentivirus expressing shNC assessed as early apoptotic cells after 48 hrs by Annexin-V-FITC/PI-staining based flow cytometric analysis (reference value: 2.56%); assay type: functional
U-118-MG [23] = assay: Inhibition of colony formation in human U118MG cells after 7 days; assay type: functional, cell-based
U-87 MG [24] = assay: Induction of apoptosis in human U87 cells transfected with lentivirus expressing shNC assessed as viable cells after 48 hrs by Annexin-V-FITC/PI-staining based flow cytometric analysis (reference value: 98.5%); assay type: functional, U-87MG ATCC
U-87 MG [25] = assay: Induction of apoptosis in human U87 cells transfected with lentivirus expressing shPKM2 assessed as late apoptotic cells after 48 hrs by Annexin-V-FITC/PI-staining based flow cytometric analysis (reference value: 1.25%); assay type: functional, U-87MG ATCC
U-251 = assay: Antiproliferative activity against human U251 cells assessed as reduction in cell viability after 72 hrs by MTT assay; assay type: functional, cell-based; conditions: U-251, 72 h
Pyruvate kinase PKM [26] = molecular target: T1, Pyruvate kinase PKM; assay: Activation of recombinant human N-terminal 6His-tagged PKM2 expressed in Escherichia coli BL21 cells after 50 mins by fluorescence based analysis
Target sequence in this assay (P14618 whole entry): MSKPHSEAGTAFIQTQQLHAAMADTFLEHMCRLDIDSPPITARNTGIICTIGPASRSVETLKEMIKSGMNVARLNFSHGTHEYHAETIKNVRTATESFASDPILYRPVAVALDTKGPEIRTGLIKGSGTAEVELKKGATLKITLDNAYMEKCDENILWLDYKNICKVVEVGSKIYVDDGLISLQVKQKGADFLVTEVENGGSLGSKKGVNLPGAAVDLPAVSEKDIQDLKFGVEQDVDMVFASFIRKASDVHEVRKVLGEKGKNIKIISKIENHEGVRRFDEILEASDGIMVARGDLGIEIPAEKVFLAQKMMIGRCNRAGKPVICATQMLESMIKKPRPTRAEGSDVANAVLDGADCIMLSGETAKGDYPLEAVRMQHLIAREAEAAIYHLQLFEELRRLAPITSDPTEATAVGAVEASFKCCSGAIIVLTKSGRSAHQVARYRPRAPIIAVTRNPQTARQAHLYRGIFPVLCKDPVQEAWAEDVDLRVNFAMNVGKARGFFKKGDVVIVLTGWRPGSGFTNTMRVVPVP

U-118-MG [27] = assay: Antimigratory activity against human U118MG cells transfected with lentivirus expressing shNC at 2 uM incubated for 48 hrs by crystal violet staining based transwell assay; assay type: functional, cell-based
U-118-MG [28] = assay: Induction of apoptosis in human U118MG cells transfected with lentivirus expressing shNC assessed as necrotic cells after 48 hrs by Annexin-V-FITC/PI-staining based flow cytometric analysis (reference value: 0.418%); assay type: functional
Pyruvate kinase PKM [29] = molecular target: T1, Pyruvate kinase PKM; assay: Covalent binding affinity to recombinant human N-terminal 6His-tagged PKM2 expressed in Escherichia coli BL21 Cells after 2 hrs by LC-MS/MS analysis
[30] = Antiproliferative activity against human SHG44 cells assessed as reduction in cell viability after 72 hrs by MTT assay; assay type: functional, cell-based; conditions: SHG-44, 72 h
U-118-MG [31] = assay: Induction of apoptosis in human U118MG cells transfected with lentivirus expressing shPKM2 assessed as viable cells after 48 hrs by Annexin-V-FITC/PI-staining based flow cytometric analysis (reference value: 97.7%); assay type: functional
Pyruvate kinase PKM [32] = molecular target: T1, Pyruvate kinase PKM; assay: Activation of PKM2 in human U118MG cells assessed as reduction in bcl2 expression at 1 to 2 uM after 48 hrs by Western blot analysis; assay type: cell-based
U-118-MG [33] = assay: Effect on P65 protein expression in human U118MG cells at 0.2 to 0.5 uM after 48 hrs by Western blot analysis; assay type: functional, cell-based
[34] = molecular target: Transcription factor p65 (Homo sapiens) (UniProt Q04206); assay: Effect on NFkappaB p65 nuclear translocation in human U118MG cells at 0.2 to 0.5 after 48 hrs by Western blot analysis; assay type: cell-based
U-87MG ATCC = assay: Effect on P65 protein expression in human U87 cells at 0.2 to 0.5 uM after 48 hrs by Western blot analysis; assay type: functional, cell-based
U-118-MG [35] = assay: Antimetastatic activity against human U118MG cells assessed as reduction in cell migration at 2 uM after 24 hrs by crystal violet staining based transwell assay; assay type: functional

Sequence of Transcription factor p65 (Homo sapiens) (Q04206 whole entry): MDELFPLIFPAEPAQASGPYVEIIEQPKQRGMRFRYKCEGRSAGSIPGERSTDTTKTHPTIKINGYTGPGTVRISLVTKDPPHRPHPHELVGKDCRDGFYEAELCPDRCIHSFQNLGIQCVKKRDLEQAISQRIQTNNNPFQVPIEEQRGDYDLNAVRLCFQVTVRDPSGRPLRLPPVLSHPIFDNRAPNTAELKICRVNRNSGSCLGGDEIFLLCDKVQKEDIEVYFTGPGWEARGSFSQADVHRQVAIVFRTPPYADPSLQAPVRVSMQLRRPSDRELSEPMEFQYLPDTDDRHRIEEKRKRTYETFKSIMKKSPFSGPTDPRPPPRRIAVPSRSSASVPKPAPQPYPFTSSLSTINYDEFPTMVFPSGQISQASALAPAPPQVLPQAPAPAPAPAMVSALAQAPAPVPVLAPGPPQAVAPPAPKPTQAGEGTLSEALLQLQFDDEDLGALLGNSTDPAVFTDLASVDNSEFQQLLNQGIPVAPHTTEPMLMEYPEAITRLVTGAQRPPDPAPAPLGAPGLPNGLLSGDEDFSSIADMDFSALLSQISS

Work on C=C1C(=O)O[C@H]2[C@H]1CC/C(C(=O)OCCOCCOC(=O)/C1=C/CC[C@@]3(C)O[C@H]3[C@H]3OC(=O)C(=C)[C@@H]3CC1)=C\CC[C@@]1(C)O[C@@H]21 yielded an IC50 (SF-126) of 7.49 µM, an Activity (U-87 MG [1]) of 0.539% and an IC50 (U-118-MG [2]) of 1.04 µM. The inhibition (U-87 MG [3]) was “Dose-dependent effect”, the Activity (Pyruvate kinase PKM [4]) was “Active” and the Activity (U-87 MG [5]) was “Active”. For the same compound, the Activity (U-118-MG [6]) was “inactive”, the IC50 (C6) was 1.66 µM and the Activity (Pyruvate kinase PKM [7]) was “Active”. For the same compound, the Activity (Pyruvate kinase PKM [8]) was “Active”, the Activity (U-87 MG [9]) was 93% and the Activity (U-118-MG [10]) was “Dose-dependent effect”. The Activity (U-118-MG [11]) was 42.1%, the Activity (U-87 MG [12]) was “inactive” and the Activity (U-87 MG [13]) was 72.5%. The Activity (U-118-MG [14]) was “inactive”, the Activity (Pyruvate kinase PKM [15]) was “Active” and the Activity (U-87 MG [16]) was “Active”. The Activity (Pyruvate kinase PKM [17]) was “Active”, the Activity (U-87 MG [18]) was 24.4% and the Activity (Pyruvate kinase PKM [19]) was “Active”. The inhibition (Pyruvate kinase PKM [20]) was “Active”, the IC50 (U-87 MG [21]) was 1.76 µM and the Activity (U-118-MG [22]) was 47.1%. For the same compound, the inhibition (U-118-MG [23]) was “Dose-dependent effect”, the Activity (U-87 MG [24]) was 85.1% and the Activity (U-87 MG [25]) was 2.76%. The IC50 (U-251) was 7.14 µM, the AC50 (Pyruvate kinase PKM [26]) was 0.015 µM and the Activity (U-118-MG [27]) was “Active”. The Activity (U-118-MG [28]) was 1.85%, the Activity (Pyruvate kinase PKM [29]) was “Active” and the IC50 [30] was 5.24 µM. The Activity (U-118-MG [31]) was 92.8%, the Activity (Pyruvate kinase PKM [32]) was “Active” and the Activity (U-118-MG [33]) was “inactive”. For the same compound, the Activity [34] was “inactive”, the Activity (U-87MG ATCC) was “inactive” and the Activity (U-118-MG [35]) was “Active”.
